# From US20070243161A1, “Epigenetic modification of the loci for CAMTA1 and/or FOXP3 as a marker for cancer treatment” (priority 2006, published 2007)
# What was measured:
# foxp3 locus = assay: Bisulphite sequencing of the foxp3 locus in CD25-CD4+ T cells cultured with TGF-β; format: cell-based, BALB/c mice
# Source text: D4+ T cells were isolated from pooled spleen and LN single cell suspensions by using anti CD4-FITC plus anti FITC multisort microbeads and the AutoMACS magnetic separation system (Miltenyi Biotec). After release of beads according to the manufacturer's instructions, CD25+ cells were depleted by using anti CD25-APC plus anti APC microbeads. To avoid the expansion of pre-committed Foxp3+ Tregs, the inventors excluded the majority of residual Foxp3+ Tregs from the CD25−CD4+ T cell fraction by sorting for CD62L^high cells using anti CD62L microbeads. MACS-sorted CD62L^highCD25−CD4+ T cells were stimulated for 3 days using plate bound anti CD3 (6 μg/ml) and anti CD28 (4 μg/ml). For Th1 cultures 5 μg/ml anti-IL-4, 20 ng/ml IFN-γ and 5 ng/ml IL-12 was added to the medium. For TGF-β cultures 5 ng/ml TGF-β and 10 ng/ml IL-2 was used. After 3 days, cells were removed from the stimulus, transferred to non-coated plates and cultured for another 3 days. All cell culture was done with RPMI 1640 (Gibco) supplemented with 10% FCS (Sigma). On day 6, cultured cells were stained using anti CD25-APC and sorted for CD25+ cells by FACS (Aria). Foxp3 expression of sorted CD25+ cells was analyzed by intracellular staining. For restimulation experiments sorted CD25+ cells were stimulated for 3 days using plate bound anti CD3 (6 μg/ml) and anti CD28 (4 μg/ml) plus IL-2 (10 ng/ml). After 3 days, cells were removed from the stimulus, transferred to non-coated plates and cultured for another 3 days. On day 6, cultured cells were stained for CD25 and Foxp3 as described above.
# Genomic DNA was isolated from purified T cells using the DNeasy tissue kit (Qiagen) following the supplier's recommendations. Sodium bisulphite treatment of genomic DNA was performed according to Olek et al. (Olek, A., Oswald, J. and Walter, J. A modified and improved method for bisulphite based cytosine methylation analysis. Nucleic Acids Res 24, 5064-6 (1996)) with minor modifications, resulting in the deamination of unmethylated cytosines to uracil, whereas methylated cytosines remain unchanged. In a subsequent PCR amplification uracils were replicated as thymidines. Thus, detection of a “C” in sequencing reactions reflects methylation of the genomic DNA at that site. Detection of a “T” at the same site instead reflects the absence of a methyl modification of the genomic cytosine.
# PCRs were performed on MJ Research thermocyclers (Waltham) in a final volume of 25 μl containing 1×PCR Buffer, 1 U Taq DNA polymerase (Qiagen), 200 μM dNTPs, 12.5 pmol each of forward and reverse primers, and 7 ng of bisulphite-treated genomic DNA. The amplification conditions were 95° C. for 15 min and 40 cycles of 95° C. for 1 min, 55° C. for 45 sec and 72° C. for 1 min and a final extension step of 10 min at 72° C. PCR products were purified using ExoSAP-IT USB Corp.) and sequenced in both directions applying the PCR primers and the ABI Big Dye Terminator v1.1 cycle sequencing chemistry (Applied Biosystems) followed by capillary electrophoresis on an ABI 3100 genetic analyzer. Trace files were interpreted using ESME, which normalizes sequence traces, corrects for incomplete bisulphite conversion and allows for quantification of methylation signals (Lewin, J., Schmitt, A. O., Adorjan, P., Hildmann, T. and Piepenbrock, C. Quantitative DNA methylation analysis based on four-dye trace data from direct sequencing of PCR amplificates. Bioinformatics 20, 3005-12 (2004)). For each sample both PCR amplification and sequencing was repeated once. The following primers (5′ to 3′ direction) were used for both PCR amplification of bisulphite converted genomic DNA and sequence reactions: […]
# Foxp3 = assay: Intracellular Foxp3 expression by FACS in TGF-β-cultured CD25-CD4+ T cells; format: cell-based, BALB/c mice
# Description: Cytometric analysis was performed as previously described (Huehn, J. et al. Developmental stage, phenotype and migration distinguish naive- and effector/memory-like CD4+ regulatory T cells. J Exp Med 199, 303-313 (2004)) using a FACS Calibur or a LSRII (BD Biosciences) and the CellQuest™ software. Dead cells were excluded by PI (propidium iodide) or DAPI (diamidophenylindole) staining (Sigma). Intracellular Foxp3 staining was performed with the PE anti-mouse Foxp3 staining set according to the manufacturers instructions.
# D4+ T cells were isolated from pooled spleen and LN single cell suspensions by using anti CD4-FITC plus anti FITC multisort microbeads and the AutoMACS magnetic separation system (Miltenyi Biotec). After release of beads according to the manufacturer's instructions, CD25+ cells were depleted by using anti CD25-APC plus anti APC microbeads. To avoid the expansion of pre-committed Foxp3+ Tregs, the inventors excluded the majority of residual Foxp3+ Tregs from the CD25−CD4+ T cell fraction by sorting for CD62L^high cells using anti CD62L microbeads. MACS-sorted CD62L^highCD25−CD4+ T cells were stimulated for 3 days using plate bound anti CD3 (6 μg/ml) and anti CD28 (4 μg/ml). For Th1 cultures 5 μg/ml anti-IL-4, 20 ng/ml IFN-γ and 5 ng/ml IL-12 was added to the medium. […] Foxp3 expression of sorted CD25+ cells was analyzed by intracellular staining. […]
# [1] = cell culture in the presence of TGF-β
# [2] = sorted CD25+ cells, day 6 TGF-β culture, exp. 1
# [3] = sorted CD25+ cells, day 6 TGF-β culture, exp. 2
substance,measurement,setting,value
TGF-β: cytokine (R and D Systems) added at 5 ng/ml with IL-2 to induce Foxp3+ Tregs from CD25-CD4+ T cells,methylation of CpG motifs in amplicons 3 and 4,foxp3 locus; [1],fully methylated
same,methylation of CpG motifs within region covered by amplicons 1 and 2,foxp3 locus; [1],clearly visible demethylation
same,"degree of methylation, CpG motif amplicon 1 (158)",foxp3 locus; [2],100%
same,"degree of methylation, CpG motif amplicon 1 (180)",foxp3 locus; [2],92%
same,"degree of methylation, CpG motif amplicon 1 (308)",foxp3 locus; [2],63%
same,"degree of methylation, CpG motif amplicon 1 (344)",foxp3 locus; [2],41%
same,"degree of methylation, CpG motif amplicon 1 (360)",foxp3 locus; [2],60%
same,"degree of methylation, CpG motif amplicon 1 (394)",foxp3 locus; [2],28%
same,"degree of methylation, CpG motif amplicon 1 (421)",foxp3 locus; [2],42%
same,"degree of methylation, CpG motif amplicon 1 (426)",foxp3 locus; [2],48%
same,"degree of methylation, CpG motif amplicon 2 (205)",foxp3 locus; [2],74%
same,"degree of methylation, CpG motif amplicon 2 (224)",foxp3 locus; [2],72%
same,"degree of methylation, CpG motif amplicon 2 (228)",foxp3 locus; [2],100%
same,"degree of methylation, CpG motif amplicon 2 (236)",foxp3 locus; [2],75%
same,"degree of methylation, CpG motif amplicon 2 (298)",foxp3 locus; [2],64%
same,"degree of methylation, CpG motif amplicon 2 (368)",foxp3 locus; [2],39%
same,"degree of methylation, CpG motif amplicon 3 (93)",foxp3 locus; [2],100%
same,"degree of methylation, CpG motif amplicon 3 (170)",foxp3 locus; [2],100%
same,"degree of methylation, CpG motif amplicon 3 (173)",foxp3 locus; [2],100%
same,"degree of methylation, CpG motif amplicon 3 (176)",foxp3 locus; [2],100%
same,"degree of methylation, CpG motif amplicon 3 (281)",foxp3 locus; [2],100%
same,"degree of methylation, CpG motif amplicon 4 (69)",foxp3 locus; [2],100%
same,"degree of methylation, CpG motif amplicon 4 (311)",foxp3 locus; [2],100%
same,"degree of methylation, CpG motif amplicon 4 (315)",foxp3 locus; [2],100%
same,"degree of methylation, CpG motif amplicon 4 (319)",foxp3 locus; [2],100%
same,"degree of methylation, CpG motif amplicon 4 (338)",foxp3 locus; [2],90%
same,"degree of methylation, CpG motif amplicon 4 (371)",foxp3 locus; [2],100%
same,"degree of methylation, CpG motif amplicon 1 (158)",foxp3 locus; [3],100%
same,"degree of methylation, CpG motif amplicon 1 (180)",foxp3 locus; [3],93%
same,"degree of methylation, CpG motif amplicon 1 (308)",foxp3 locus; [3],75%
same,"degree of methylation, CpG motif amplicon 1 (344)",foxp3 locus; [3],41%
same,"degree of methylation, CpG motif amplicon 1 (360)",foxp3 locus; [3],70%
same,"degree of methylation, CpG motif amplicon 1 (394)",foxp3 locus; [3],38%
same,"degree of methylation, CpG motif amplicon 2 (205)",foxp3 locus; [3],67.5%
same,"degree of methylation, CpG motif amplicon 2 (224)",foxp3 locus; [3],75%
same,"degree of methylation, CpG motif amplicon 2 (228)",foxp3 locus; [3],90%
same,"degree of methylation, CpG motif amplicon 2 (236)",foxp3 locus; [3],66%
same,"degree of methylation, CpG motif amplicon 2 (298)",foxp3 locus; [3],43%
same,"degree of methylation, CpG motif amplicon 2 (368)",foxp3 locus; [3],50%
same,"degree of methylation, CpG motif amplicon 3 (170)",foxp3 locus; [3],100%
same,"degree of methylation, CpG motif amplicon 3 (173)",foxp3 locus; [3],100%
same,"degree of methylation, CpG motif amplicon 3 (176)",foxp3 locus; [3],100%
same,"degree of methylation, CpG motif amplicon 3 (281)",foxp3 locus; [3],96%
same,"degree of methylation, CpG motif amplicon 4 (69)",foxp3 locus; [3],100%
same,"degree of methylation, CpG motif amplicon 4 (311)",foxp3 locus; [3],100%
same,"degree of methylation, CpG motif amplicon 4 (315)",foxp3 locus; [3],100%
same,"degree of methylation, CpG motif amplicon 4 (319)",foxp3 locus; [3],100%
same,"degree of methylation, CpG motif amplicon 4 (338)",foxp3 locus; [3],100%
same,"degree of methylation, CpG motif amplicon 4 (371)",foxp3 locus; [3],100%
same,Foxp3+ cells among TGF-β-cultured cells,"Foxp3; CD25-CD4+ T cells activated and cultured 6 days with TGF-β, day 6",> 98%
same,Foxp3 expression after restimulation,Foxp3; TGF-β-induced Tregs restimulated 6 days in the absence of TGF-β,lost Foxp3 expression
